From PubChem BioAssay AID264 (DTP/NCI, 2004)
Values joined by “and” are separate entries in the source; they are usually repeats but may differ in a detail not shown here. Identical values can stand only once. Results filed as inconclusive are left out.

System: nude mice, LX-1 lung xenograft intrarenal, tumor weight T/C
Test: NCI In Vivo Anticancer Drug Screen. Data for tumor model Human Lung LX-1 Xenograft (intrarenal inoculation) in NU/NU Swiss (nude) mice
Settings: endpoint: mean tumor weight change, higher = larger tumour
Summary of the method: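 Antitumor effect is expressed as a ratio: the mean tumor measurement of the drug-treated group relative to that of the vehicle-dosed control group.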

[1] = dose: 50.0 mg/kg/injection, schedule: Q01DX010 (sc), vehicle: saline
[2] = dose: 100.0 mg/kg/injection, schedule: Q01DX010 (sc), vehicle: saline
[3] = dose: 200.0 mg/kg/injection, schedule: Q01DX010 (sc), vehicle: saline
[4] = dose: 400.0 mg/kg/injection, schedule: Q01DX010 (sc), vehicle: saline
[5] = dose: 100.0 mg/kg/injection, schedule: Q04DX003 (sc), vehicle: Klucel (hydroxypropylcellulose) (HPC)
[6] = dose: 200.0 mg/kg/injection, schedule: Q04DX003 (sc), vehicle: Klucel (hydroxypropylcellulose) (HPC)
[7] = dose: 400.0 mg/kg/injection, schedule: Q04DX003 (sc), vehicle: Klucel (hydroxypropylcellulose) (HPC)
[8] = dose: 150.0 mg/kg/injection, schedule: Q04DX003 (sc), vehicle: Klucel (hydroxypropylcellulose) (HPC)
[9] = dose: 300.0 mg/kg/injection, schedule: Q04DX003 (sc), vehicle: Klucel (hydroxypropylcellulose) (HPC)
[10] = dose: 300.0 mg/kg/injection, schedule: Q04DX003 (sc), vehicle: water
[11] = dose: 600.0 mg/kg/injection, schedule: Q04DX003 (sc), vehicle: water
[12] = dose: 600.0 mg/kg/injection, schedule: Q04DX003 (sc), vehicle: Klucel (hydroxypropylcellulose) (HPC)
[13] = dose: 1200.0 mg/kg/injection, schedule: Q04DX003 (sc), vehicle: Klucel (hydroxypropylcellulose) (HPC)
[14] = dose: 1200.0 mg/kg/injection, schedule: Q04DX003 (sc), vehicle: water
[15] = dose: 25.0 mg/kg/injection, schedule: Q01DX010 (sc), vehicle: saline
[16] = dose: 200.0 mg/kg/injection, schedule: Q01DX010 (sc), vehicle: Klucel (hydroxypropylcellulose) (HPC)
[17] = dose: 400.0 mg/kg/injection, schedule: Q01DX010 (sc), vehicle: Klucel (hydroxypropylcellulose) (HPC)

## NCCCC(N)(C(=O)O)C(F)F (centres undefined)
dose: 300.0 mg/kg/injection, schedule: Q04DX003 (sc), vehicle: distilled water + alcohol
  T/C: 101 % of control
dose: 600.0 mg/kg/injection, schedule: Q04DX003 (sc), vehicle: distilled water + alcohol
  T/C: 87 % of control
dose: 1200.0 mg/kg/injection, schedule: Q04DX003 (sc), vehicle: distilled water + alcohol
  T/C: 82 % of control
dose: 2400.0 mg/kg/injection, schedule: Q04DX003 (sc), vehicle: distilled water + alcohol
  T/C: 92 % of control

## COC1=CC(=O)N(C(=O)C2CSC(C(CO)NC(=O)c3csc(/C=N/O)n3)=N2)C1 (centres undefined)
dose: 225.0 mg/kg/injection, schedule: Q04DX003 (sc), vehicle: Klucel (hydroxypropylcellulose) (HPC)
  T/C: 59 % of control
dose: 450.0 mg/kg/injection, schedule: Q04DX003 (sc), vehicle: Klucel (hydroxypropylcellulose) (HPC)
  T/C: 112 % of control
dose: 900.0 mg/kg/injection, schedule: Q04DX003 (sc), vehicle: Klucel (hydroxypropylcellulose) (HPC)
  T/C: 87 % of control
dose: 1800.0 mg/kg/injection, schedule: Q04DX003 (sc), vehicle: Klucel (hydroxypropylcellulose) (HPC)
  T/C: 50 % of control

## O=c1[nH]c(=O)n(C2CC(O)C(CO)O2)cc1C(F)(F)F (centres undefined)
[1]
  T/C: 91 % of control
[2]
  T/C: 100 % of control
[3]
  T/C: 51 % of control
[4]
  T/C: 30 % of control

## O=C(O)CC(=O)O.[NH-]C1CCCCC1[NH-].[Pt+2] (centres undefined)
dose: 5.0 mg/kg/injection, schedule: Q01DX010 (sc), vehicle: dextrose
  T/C: 187 % of control and 247 % of control
dose: 10.0 mg/kg/injection, schedule: Q01DX010 (sc), vehicle: dextrose
  T/C: 92 % of control

## CN(C)c1ccc(C(=C2C=CC(=[N+](C)C)C=C2)c2ccc(N(C)C)cc2)cc1 (tested in a mixture with another compound)
dose: 7.5 mg/kg/injection, schedule: Q04DX003 (sc), vehicle: saline with Tween-80
  T/C: 76 % of control
dose: 15.0 mg/kg/injection, schedule: Q04DX003 (sc), vehicle: saline with Tween-80
  T/C: 59 % of control
dose: 30.0 mg/kg/injection, schedule: Q04DX003 (sc), vehicle: saline with Tween-80
  T/C: 98 % of control
dose: 60.0 mg/kg/injection, schedule: Q04DX003 (sc), vehicle: saline with Tween-80
  T/C: 65 % of control

## C(COCCOCC1CO1)OCCOCC1CO1 (centres undefined)
[2]
  T/C: 108 % of control
[3]
  T/C: 93 % of control
[4]
  T/C: 46 % of control

## C[C@@](O)(/C=C/[C@H]1CC=CC(=O)O1)[C@@H](C[C@@H](O)\C=C/C=C\C=C\CO)OP(=O)(O)O
dose: 7.5 mg/kg/injection, schedule: Q04DX003 (sc), vehicle: other
  T/C: 160 % of control
dose: 15.0 mg/kg/injection, schedule: Q04DX003 (sc), vehicle: other
  T/C: 168 % of control

## O=Cc1ccccc1
[5]
  T/C: 64 % of control
[6]
  T/C: 75 % of control
[7]
  T/C: 73 % of control
dose: 800.0 mg/kg/injection, schedule: Q04DX003 (sc), vehicle: Klucel (hydroxypropylcellulose) (HPC)
  T/C: 112 % of control

## N/C(=N\OC(=O)Nc1ccc(CSc2ccc(Cl)cc2)o1)c1ccccn1
dose: 75.0 mg/kg/injection, schedule: Q04DX003 (sc), vehicle: Klucel (hydroxypropylcellulose) (HPC)
  T/C: 69 % of control
[8]
  T/C: 66 % of control
[9]
  T/C: 180 % of control

## CCCCNC(C)C1(O)Cc2c(O)c3c(c(O)c2C(OC2CC(N)C(O)C(C)O2)C1)C(=O)c1c(OC)cccc1C3=O (centres undefined)
[10]
  T/C: 99 % of control
[11]
  T/C: 84 % of control

## CCC1=C[C@H]2CN(CCc3c([nH]c4ccccc34)[C@@](C(=O)OC)(c3cc4c(cc3OC)N(C)[C@H]3[C@@](O)(C(=O)NC)[C@H](OC(C)=O)[C@]5(CC)C=CCN6CC[C@]43[C@@H]65)C2)C1
dose: 0.5 mg/kg/injection, schedule: Q04DX003 (sc), vehicle: water
  T/C: 63 % of control
dose: 1.0 mg/kg/injection, schedule: Q04DX003 (sc), vehicle: water
  T/C: 67 % of control
dose: 4.0 mg/kg/injection, schedule: Q04DX003 (sc), vehicle: water
  T/C: 10 % of control

## COc1cc(C(=O)c2cc3c(cc2C)OCO3)cc(OC)c1OC
[8]
  T/C: 78 % of control
[9]
  T/C: 71 % of control
[12]
  T/C: 80 % of control
[13]
  T/C: 82 % of control

## NC(=O)Oc1cccc(OC(N)=O)c1
[10]
  T/C: 105 % of control
[11]
  T/C: 89 % of control
[14]
  T/C: 67 % of control
dose: 2400.0 mg/kg/injection, schedule: Q04DX003 (sc), vehicle: water
  T/C: 54 % of control

## CNC(=O)ON(C(C)=O)C(=O)NC
dose: 12.5 mg/kg/injection, schedule: Q01DX010 (sc), vehicle: saline
  T/C: 109 % of control
[15]
  T/C: 102 % of control

## CC(=O)ON(C(C)=O)c1ccc(C(N)=O)cc1
dose: 150.0 mg/kg/injection, schedule: Q04DX003 (sc), vehicle: saline with Tween-80
  T/C: 110 % of control
dose: 300.0 mg/kg/injection, schedule: Q04DX003 (sc), vehicle: saline with Tween-80
  T/C: 114 % of control
dose: 600.0 mg/kg/injection, schedule: Q04DX003 (sc), vehicle: saline with Tween-80
  T/C: 100 % of control
dose: 1200.0 mg/kg/injection, schedule: Q04DX003 (sc), vehicle: saline with Tween-80
  T/C: 97 % of control

## O=[N+]([O-])c1ccc(-n2[nH]nnc2=S)cc1
dose: 50.0 mg/kg/injection, schedule: Q04DX003 (sc), vehicle: Klucel (hydroxypropylcellulose) (HPC)
  T/C: 92 % of control
[5]
  T/C: 84 % of control
[6]
  T/C: 95 % of control
[7]
  T/C: 59 % of control

## Cc1cc(N/N=C/c2ccccn2)nc2ccccc12
[8]
  T/C: 89 % of control
[9]
  T/C: 103 % of control
[12]
  T/C: 115 % of control
[13]
  T/C: 98 % of control

## Cc1noc(N)c1N
[11]
  T/C: 106 % of control
[14]
  T/C: 94 % of control

## O=c1[nH]c(=O)n(C2CC(O)C(CO)O2)cc1Br (centres undefined)
[16]
  T/C: 35 % of control
[17]
  T/C: 35 % of control
dose: 800.0 mg/kg/injection, schedule: Q01DX010 (sc), vehicle: Klucel (hydroxypropylcellulose) (HPC)
  T/C: 27 % of control

## OC(C1CO1)C(O)C1CO1 (centres undefined)
dose: 1.0 mg/kg/injection, schedule: Q01DX010 (sc), vehicle: saline
  T/C: 73 % of control
dose: 2.0 mg/kg/injection, schedule: Q01DX010 (sc), vehicle: saline
  T/C: 66 % of control

## [N-]=[N+]=CC(=O)CCC(N)C(=O)O (centres undefined)
dose: 0.05 mg/kg/injection, schedule: Q01DX010 (sc), vehicle: saline
  T/C: 91 % of control
dose: 0.37 mg/kg/injection, schedule: Q01DX010 (sc), vehicle: saline
  T/C: 12 % of control
dose: 0.75 mg/kg/injection, schedule: Q01DX010 (sc), vehicle: saline
  T/C: -28 % of control

## Cc1ccc(S(=O)(=O)N/N=C/C(=O)O)cc1
dose: 12.5 mg/kg/injection, schedule: Q01DX010 (sc), vehicle: Klucel (hydroxypropylcellulose) (HPC)
  T/C: 98 % of control
dose: 50.0 mg/kg/injection, schedule: Q01DX010 (sc), vehicle: Klucel (hydroxypropylcellulose) (HPC)
  T/C: 37 % of control and 55 % of control
[16]
  T/C: 45 % of control
[17]
  T/C: 58 % of control

## O=C[C@@H](CO)O[C@H](C=O)n1cnc2c(=O)[nH]cnc21
dose: 100.0 mg/kg/injection, schedule: Q04DX003 (sc), vehicle: suspension in saline
  T/C: 71 % of control
dose: 200.0 mg/kg/injection, schedule: Q04DX003 (sc), vehicle: suspension in saline
  T/C: 57 % of control
dose: 400.0 mg/kg/injection, schedule: Q04DX003 (sc), vehicle: suspension in saline
  T/C: 59 % of control
dose: 800.0 mg/kg/injection, schedule: Q04DX003 (sc), vehicle: suspension in saline
  T/C: 54 % of control

## c1ccc([P+](c2ccccc2)(c2ccccc2)c2ccccc2)cc1
dose: 2.5 mg/kg/injection, schedule: Q04DX003 (sc), vehicle: saline
  T/C: 93 % of control
dose: 5.0 mg/kg/injection, schedule: Q04DX003 (sc), vehicle: saline
  T/C: 107 % of control
dose: 10.0 mg/kg/injection, schedule: Q04DX003 (sc), vehicle: saline
  T/C: 71 % of control and 87 % of control

## N=C(N)Sc1ccccn1
dose: 1.25 mg/kg/injection, schedule: Q01DX010 (sc), vehicle: saline
  T/C: 83 % of control
dose: 2.5 mg/kg/injection, schedule: Q01DX010 (sc), vehicle: saline
  T/C: 72 % of control
dose: 5.0 mg/kg/injection, schedule: Q01DX010 (sc), vehicle: saline
  T/C: 52 % of control
dose: 10.0 mg/kg/injection, schedule: Q01DX010 (sc), vehicle: saline
  T/C: 29 % of control
[15]
  T/C: 158 % of control
[1]
  T/C: 167 % of control
